According to patent US9492426B2, “Mycophenolic acid analogues as anti-tumor chemosensitizing agents” (Texas A & M University System, priority 2011, dated 2016):
Read-outs that look alike come from different tables or passages of the source.

Legend:
[1] = system: dysplastic oral keratinocyte (DOK) cells; assay: Growth inhibition (IC50) and combination index in dysplastic oral keratinocyte cells; type: cell-based; conditions: single agent, read-out: IC50 concentration
Experimental: Cells were plated in 96-well plates for one day and received drug treatments for 3 days. The plating cell densities were 2,000 cells/well for human cancer cell lines, 3,000 cells/well for tumor sphere cells, and 10,000 cells/well for primary tumor cells. Following the addition of MTT solutions (10 μl, 5 mg/ml), cells were incubated for 4 hours to allow MTT to be metabolized to formazan. Formazan was then dissolved in DMSO and measured by spectrophotometer at 560 nm.
The tumor growth-inhibitory curves of individual drugs were first measured by the MTT assay over a range of five concentrations with three-fold increment. The half-inhibitory concentrations (IC50) were calculated by Calcusyn program (Biosoft, Ferguson, Mo.). The combined effects were measured by mixing two drugs at the 4:1, 2:1, 1:1, 1:2, or 1:4 ratio of their respective IC50 concentrations. Each combination was tested for its tumor growth-inhibitory effect over a range of five different dosages, and calculated for its CI using the Calcusyn program.

pre-rRNA transcripts = assay: Real-time RT-PCR of pre-rRNA transcripts; type: cell-based
Experimental: The AC(t) values between the target message and two reference messages (HMG-14 and […]) were determined using the MyiQ single-color real-time PCR detection system and supermix SYBR green reagent. The AAC(t) values were measured from two biological replicates and two technical repeats (n=4). Primer sequences are: SJ1, 5′-[…]-3′ and 5′-[…]-3′; SJ2, 5′-[…]-3′ and 5′-[…]-3′; SJ3, 5′-[…]-3′ and 5′-[…]-3′; and 18S, 5′-[…]-3′ and 5′-[…]-3′.
The anti-tumor activity of MPA has been linked to nucleolar stress. To investigate whether the synergy of MPA on 5-FU is related to nucleolar stress, Applicants tested the anti-tumor effect of 5-FU in combination with two inhibitors (actinomycin D [AMD] and ADR). Both drugs trigger nucleolar disassembly, but differ in that low-dose AMD (0.05 ug/ml) inhibits the activity of RNA polymerase-I, whereas ADR (2 uM) inhibits the activity of RNA polymerase-II. […] To determine how 5-FU and MPA affect the synthesis or processing of pre-rRNAs, Applicants used real-time RT-PCR to measure the amounts of rRNA transcripts with the splice junction-1 (SJ-1), SJ-2, SJ-3, and 18S rRNA sequences (FIG. 3B). […] By contrast, 5-FU alone increases 47S pre-rRNA and decreases the amount of SJ-3-containing transcripts.

MDA-MB-231 cells = assay: BrdU labeling (cell proliferation) in MDA-MB-231 cells; type: cell-based, human; conditions: 5-FU 0.15 ug/ml alone or MPA 0.19 uM alone
Experimental: Primary antibodies used for immunofluorescence included rabbit anti-NS (Ab138, Cocalico), rat anti-BrdU (BU1/75, Accurate), and mouse anti-fibrillarin (38F3, EnCor) antibodies. To measure cell proliferation, cultures were treated with bromodeoxyuridine (BrdU, Accurate, OBT0030) 1 hour before harvest.

nucleostemin = assay: Nucleostemin protein level in MDA-MB-231 cells; type: cell-based, human
Description: To test the idea that nucleostemin may be involved in mediating the synergy between MPA and 5-FU, Applicants first confirmed that MPA treatment decreases the protein level of endogenous nucleostemin but not that of GNL3L and Ngp-1, the two nucleostemin homologues in vertebrate (FIG. 4A). […] Applicants noted that cells in the three control groups appear to be more resistant to the 5-FU/MPA-combined treatment than to the parental MDA-MB-231 cells, which may be caused by the G418/puromycin drug selection process.

Compound | IC50 ([1]; Keratinocyte) | 47S pre-rRNA (pre-rRNA transcripts) | amount of SJ-3-containing transcripts (pre-rRNA transcripts) | proliferative rate (BrdU labeling) (MDA-MB-231 cells) | IC50 [1] [µM] | protein level of endogenous nucleostemin (nucleostemin) | amount of pre-rRNA transcripts (SJ-1, SJ-2, SJ-3, 18S), including 47S pre-rRNA (pre-rRNA transcripts)
O=c1[nH]cc(F)c(=O)[nH]1 [5-FU, 5-fluorouracil] | 1.67 mg/L | increases | decreases | does not decrease |  |  | 
O=C1[O][Pt]2([NH][C@@H]3CCCC[C@H]3[NH]2)[O]C1=O [oxaliplatin] |  |  |  |  | 0.83 |  | 
COc1c(C)c2c(c(O)c1C/C=C(\C)CCC(=O)O)C(=O)OC2 [MPA, mycophenolic acid] | 6.67 µM |  |  | does not decrease |  | decreases | decrease the amount of pre-rRNA transcripts
CC(=O)O[C@H]1C(=O)[C@@]2(C)[C@H]([C@H](OC(=O)c3ccccc3)[C@]3(O)C[C@H](OC(=O)[C@H](O)[C@@H](NC(=O)c4ccccc4)c4ccccc4)C(C)=C1C3(C)C)[C@]1(OC(C)=O)CO[C@@H]1C[C@@H]2O [paclitaxel] | 0.21 µM |  |  |  |  |  | 
